The values that follow come from PMC5128747, “Biscogniauxone, a New Isopyrrolonaphthoquinone Compound from the Fungus Biscogniauxia mediterranea Isolated from Deep-Sea Sediments” (Marine Drugs, 2016).

In brackets after ≈: the same amount, converted by molar mass. Several values for one entry are separate records, joined by “and”; a condition that tells them apart may be missing. Equal values may be shown once. Read-outs that look alike come from different tables or passages of the source. Where a SMILES comes first, the peptide text is derived from it.

For assay [1], the target named is acetylcholinesterase (AchE) (Homo sapiens, UniProt P22303). The assay can be described thus: Inhibition of acetylcholinesterase (AchE). In kind it is biochemical. As for the experimental part:
(§1) The phytopathogenic fungus Septoria tritici and the dermatophytic fungus Trichophyton rubrum as well as the cytotoxic effect on the human hepatocellular liver carcinoma cell line HepG2 were tested according to Jansen et al.. Inhibition of the enzymes glycogen synthase kinase (GSK-3β), acetylcholinesterase (AchE), phosphodiesterase (PDE-4B2), and protein tyrosine phosphatase (PTP1B) was determined according to Baki et al., Ohlendorf et al., Schulz et al., and Silber et al., respectively. The concentration of the compounds used in the initial bioassays was 100 μM (antibiotic tests), 50 μM (cytotoxic tests), and 10 μM (enzymatic tests).

Assay [2] addresses T1, glycogen synthase kinase (GSK-3β) (Homo sapiens, UniProt P49841). Further details: method as in PMID 24045329. To be noted: read-out: IC50, inhibition of GSK-3β; cited from earlier work.
Assay [3] has as its system Trichophyton rubrum. The assay can be described thus: Antifungal growth inhibition, Trichophyton rubrum. To be noted: in the same concentration range (IC50 in the range of 100 μM). In kind it is cell-based. As for the experimental part: as §1, with “The antimicrobial activities of compounds 1 and 2 against the bacteria Bacillus subtilis as well as the human pathogenic yeast Candida albicans (DSM 1386) were determined according to Ohlendorf et al.. The bioassays with the clinically relevant bacterial strains Staphylococcus epidermidis (DSM 20044), methicillin-resistant Staphylococcus aureus (MRSA) (DSM 18827), and the causative agent of acne, Propionibacterium acnes (DSM 1897^T), were performed as described by Silber et al.. The phytopathogenic” for “The phytopathogenic”, “(enzymatic tests). […]” for “(enzymatic tests).”

For assay [4], the system named is Septoria tritici. The assay can be described thus: Antifungal growth inhibition, Septoria tritici. To be noted: in the same concentration range (IC50 in the range of 100 μM). In kind it is cell-based. As for the experimental part: as §1, with “The antimicrobial activities of compounds 1 and 2 against the bacteria Bacillus subtilis as well as the human pathogenic yeast Candida albicans (DSM 1386) were determined according to Ohlendorf et al.. The bioassays with the clinically relevant bacterial strains Staphylococcus epidermidis (DSM 20044), methicillin-resistant Staphylococcus aureus (MRSA) (DSM 18827), and the causative agent of acne, Propionibacterium acnes (DSM 1897^T), were performed as described by Silber et al.. The phytopathogenic” for “The phytopathogenic”, “(enzymatic tests). […]” for “(enzymatic tests).”

The subject of assay [5] is Staphylococcus epidermidis (DSM 20044). The assay can be described thus: Antibacterial growth inhibition, Staphylococcus epidermidis. In kind it is cell-based. To be noted: DSM20044, very weak inhibition, in the range of. As for the experimental part:
as §1, with “The antimicrobial activities of compounds 1 and 2 against the bacteria Bacillus subtilis as well as the human pathogenic yeast Candida albicans (DSM 1386) were determined according to Ohlendorf et al.. The bioassays with the clinically relevant bacterial strains Staphylococcus epidermidis (DSM 20044), methicillin-resistant Staphylococcus aureus (MRSA) (DSM 18827), and the causative agent of acne, Propionibacterium acnes (DSM 1897^T), were performed as described by Silber et al.. The phytopathogenic” for “The phytopathogenic”, “(enzymatic tests). […]” for “(enzymatic tests).”

Assay [6] has as its target T1, glycogen synthase kinase (GSK-3β). The assay can be described thus: Inhibition of glycogen synthase kinase (GSK-3β). In kind it is biochemical. To be noted: concentrations 0.1 μM to 50 μM analyzed twice in duplicates. As for the experimental part: as §1
Assay [7] deals with methicillin-resistant Staphylococcus aureus (MRSA) (DSM 18827). The assay can be described thus: Antibacterial growth inhibition, MRSA. To be noted: very weak inhibition, in the range of. In kind it is cell-based.

T1 sequence (P49841 whole entry): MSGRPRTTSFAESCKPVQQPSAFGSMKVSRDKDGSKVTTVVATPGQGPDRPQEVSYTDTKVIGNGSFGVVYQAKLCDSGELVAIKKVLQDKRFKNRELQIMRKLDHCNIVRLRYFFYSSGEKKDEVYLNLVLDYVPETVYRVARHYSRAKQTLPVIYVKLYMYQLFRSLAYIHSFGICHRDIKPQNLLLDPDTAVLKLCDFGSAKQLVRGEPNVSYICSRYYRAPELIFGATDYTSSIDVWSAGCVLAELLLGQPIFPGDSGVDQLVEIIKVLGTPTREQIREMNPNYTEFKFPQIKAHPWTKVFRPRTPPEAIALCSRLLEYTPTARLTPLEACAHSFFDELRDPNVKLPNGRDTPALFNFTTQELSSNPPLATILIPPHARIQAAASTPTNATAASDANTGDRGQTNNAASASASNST
Sequence of acetylcholinesterase (AchE) (P22303 32-614): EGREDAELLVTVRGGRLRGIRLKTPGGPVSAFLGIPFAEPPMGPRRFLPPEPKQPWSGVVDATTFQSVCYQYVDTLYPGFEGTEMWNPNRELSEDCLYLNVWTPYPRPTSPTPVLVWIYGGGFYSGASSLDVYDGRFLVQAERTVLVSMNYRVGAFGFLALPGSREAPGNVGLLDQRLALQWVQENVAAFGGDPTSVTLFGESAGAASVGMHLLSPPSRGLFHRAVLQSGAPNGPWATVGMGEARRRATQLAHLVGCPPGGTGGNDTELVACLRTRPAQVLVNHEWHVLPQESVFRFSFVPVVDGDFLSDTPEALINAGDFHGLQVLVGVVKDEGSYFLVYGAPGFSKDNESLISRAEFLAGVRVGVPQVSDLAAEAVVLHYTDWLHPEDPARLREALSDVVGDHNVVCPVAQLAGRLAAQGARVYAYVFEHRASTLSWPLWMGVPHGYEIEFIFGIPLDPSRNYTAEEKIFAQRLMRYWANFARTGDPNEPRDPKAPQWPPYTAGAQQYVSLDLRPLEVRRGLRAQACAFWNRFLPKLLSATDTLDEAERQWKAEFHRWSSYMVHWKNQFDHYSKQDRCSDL

For the molecule `CC(C)C[C@@H]1NC(=O)[C@H](CC(C)C)NC(=O)[C@H](C(C)C)NC(=O)[C@H](CC(C)C)NC(=O)[C@H](Cc2ccccc2)NC1=O` [Compound 3, cyclo-(L-Phe-L-Leu-L-Val-L-Leu-L-Leu)] (cyclo(FLVLL)), the “minimal inhibition concentration (MIC), inhibitory effect on AchE” value in assay [1] stood at 5.87 µM (≈ 3.44 µg/mL).
As usually defined, the IC50 is the midpoint of a concentration-inhibition curve. As to bhimamycin H, in assay [2], the IC50 was 18 µM.
Turning to `COc1cc(O)c2c(c1C)C[C@H](C)OC2=O` [Compound 2, 6-methoxy-5-methyl mellein], the “inhibition of Trichophyton rubrum” value in assay [3] is listed as “weakly inhibited”. In addition, the “inhibition of Septoria tritici” value in assay [4] is recorded as “weakly inhibited”.
As for `O=C1c2c[nH]cc2C(=O)c2c(O)cc(O)cc21` [Compound 1, biscogniauxone], the IC50 in assay [5] is around 100 µM; in assay [6], 8.04 µM and 8 µM; in assay [7], around 100 µM.
